# Ends that are not written are not given here.
# System: NF-kB
# Experiment: EMSA of nuclear extracts for basal and LPS induced NF-kB translocation, RAW 264.7 mouse macrophages (second experiment)
# Format: cell-based
# Conditions: RAW264.7 cells, LPS in combination with peptide, 30 minutes incubation
# Method: The transcription factor NF-kB participates in the transcriptional regulation of a variety of genes. Nuclear protein extracts were prepared from LPS and peptide treated RAW264.7 cells or from LPS treated RAW264.7 cells. In order to determine whether the peptide modulates the translocation of NF-kB into the nucleus, on these extracts EMSA was performed. Here we see that indeed peptides are able to modulate the translocation of NF-kB since the amount of labeled oligonucleotide for NF-kB is reduced. […] RAW 264.7 mouse macrophages were cultured in DMEM, containing 10% or 2% FBS, penicillin, streptomycin and glutamine, at 37 °C, 5% CO2. Cells were seeded in a 12-wells plate (3x10^6 cells/ml) in a total volume of 1 ml for 2hours and then stimulated with LPS (E. coli 026:B6; Difco Laboratories, Detroit, MI, USA) and/or gene-regulatory peptide(1 microgr/ml). After 30 minutes of incubation plates were centrifuged and cells were collected for nuclear extracts. Nuclear extracts and EMSA were prepared according to Schreiber et al. Cells were collected in a tube and centrifuged for 5 minutes at 2000 rpm (rounds per minute) at 4°C (Universal 30 RF, Hettich Zentrifuges). […]
substance,measurement,value
"circular LQGVLPALPQVVC (also: circular, ring type not given here)",LPS induced translocation of NF-kB,inhibition of LPS induced translocation of NF-kB

# Reference: patent EP1466613A1, “Compositions for mucosal and oral administration comprising hCG fragments” (Biotempt B.V., priority 2003, dated 2004)
